Reference: paper doi:10.1101/2023.09.25.559398v1 (biorxiv, 2023)

Tests used:
[1] = target: D2longR-mNeonGreen (hD2R-mNeonGreen) (Homo sapiens, UniProt P14416); test: molecular brightness, confocal microscopy of intact cells; type: cell-based
[2] = target: D1R (Homo sapiens, UniProt P21728); test: radioligand competition binding, cell homogenates
[3] = target: D3R (Homo sapiens, UniProt P35462); test: radioligand competition binding, cell homogenates
[4] = target: T1, D2longR (Homo sapiens, UniProt P14416); test: radioligand competition binding, cell homogenates
T1 sequence (P14416 whole entry): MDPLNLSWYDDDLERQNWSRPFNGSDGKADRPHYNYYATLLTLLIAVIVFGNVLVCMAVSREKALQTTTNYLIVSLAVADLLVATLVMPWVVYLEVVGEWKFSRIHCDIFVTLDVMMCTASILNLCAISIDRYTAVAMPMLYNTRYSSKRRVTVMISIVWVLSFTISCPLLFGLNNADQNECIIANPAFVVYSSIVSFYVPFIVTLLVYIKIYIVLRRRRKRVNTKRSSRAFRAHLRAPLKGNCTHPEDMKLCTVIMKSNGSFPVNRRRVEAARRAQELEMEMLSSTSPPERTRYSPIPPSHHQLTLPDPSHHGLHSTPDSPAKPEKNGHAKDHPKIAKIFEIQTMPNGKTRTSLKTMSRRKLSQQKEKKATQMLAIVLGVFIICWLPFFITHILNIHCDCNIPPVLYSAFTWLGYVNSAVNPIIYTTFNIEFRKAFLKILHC

[5] = target: D5R (Homo sapiens, UniProt P21918); test: radioligand competition binding, cell homogenates
D5R, sequence (P21918 whole entry): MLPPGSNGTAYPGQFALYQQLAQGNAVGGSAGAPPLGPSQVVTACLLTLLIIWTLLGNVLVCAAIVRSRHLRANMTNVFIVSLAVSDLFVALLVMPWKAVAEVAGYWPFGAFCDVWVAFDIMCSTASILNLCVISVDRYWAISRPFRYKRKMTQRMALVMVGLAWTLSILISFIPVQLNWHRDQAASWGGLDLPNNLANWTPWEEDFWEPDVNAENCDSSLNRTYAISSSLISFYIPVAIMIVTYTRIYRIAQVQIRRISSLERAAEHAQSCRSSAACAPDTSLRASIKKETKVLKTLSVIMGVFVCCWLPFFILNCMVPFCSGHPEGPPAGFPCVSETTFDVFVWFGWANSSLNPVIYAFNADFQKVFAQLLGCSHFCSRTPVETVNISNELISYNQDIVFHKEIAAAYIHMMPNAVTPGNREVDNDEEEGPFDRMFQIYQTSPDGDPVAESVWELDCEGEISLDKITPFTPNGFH

[6] = target: T1, D2longR; test: Go1-CASE BRET heterotrimer dissociation assay, antagonist mode; type: cell-based
[7] = target: T2, D4R (D4.4R) (Homo sapiens, UniProt P21917); test: radioligand competition binding, cell homogenates
T2 sequence (P21917 1-419): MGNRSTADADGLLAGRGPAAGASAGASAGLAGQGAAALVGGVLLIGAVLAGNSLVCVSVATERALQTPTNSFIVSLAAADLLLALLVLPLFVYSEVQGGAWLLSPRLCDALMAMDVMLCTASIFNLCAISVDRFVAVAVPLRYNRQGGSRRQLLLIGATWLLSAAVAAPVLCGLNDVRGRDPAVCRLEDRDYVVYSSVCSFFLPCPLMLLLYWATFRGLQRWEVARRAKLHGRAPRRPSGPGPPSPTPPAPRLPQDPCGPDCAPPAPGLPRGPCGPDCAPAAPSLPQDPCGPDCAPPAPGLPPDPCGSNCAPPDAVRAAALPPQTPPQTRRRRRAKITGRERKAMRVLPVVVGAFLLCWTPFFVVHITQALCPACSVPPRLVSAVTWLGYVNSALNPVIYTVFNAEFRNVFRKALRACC

[8] = target: T3, D4R (Homo sapiens, UniProt P21917); test: Go1-CASE BRET heterotrimer dissociation assay, antagonist mode; type: cell-based
T3 sequence (P21917 1-419): T2 sequence (P21917 1-419)

D1R, sequence (P21728 whole entry): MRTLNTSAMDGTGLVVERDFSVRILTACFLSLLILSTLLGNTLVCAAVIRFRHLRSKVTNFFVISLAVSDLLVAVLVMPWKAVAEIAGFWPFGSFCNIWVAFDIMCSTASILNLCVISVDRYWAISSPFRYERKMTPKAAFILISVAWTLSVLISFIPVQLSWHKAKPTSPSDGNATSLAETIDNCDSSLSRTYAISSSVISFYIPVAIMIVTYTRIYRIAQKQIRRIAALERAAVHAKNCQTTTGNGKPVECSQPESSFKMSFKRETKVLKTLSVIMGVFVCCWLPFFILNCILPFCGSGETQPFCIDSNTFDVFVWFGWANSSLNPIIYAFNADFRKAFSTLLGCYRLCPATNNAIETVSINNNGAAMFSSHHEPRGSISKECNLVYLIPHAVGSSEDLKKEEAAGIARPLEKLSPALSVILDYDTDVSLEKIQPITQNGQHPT
D3R, sequence (P35462 whole entry): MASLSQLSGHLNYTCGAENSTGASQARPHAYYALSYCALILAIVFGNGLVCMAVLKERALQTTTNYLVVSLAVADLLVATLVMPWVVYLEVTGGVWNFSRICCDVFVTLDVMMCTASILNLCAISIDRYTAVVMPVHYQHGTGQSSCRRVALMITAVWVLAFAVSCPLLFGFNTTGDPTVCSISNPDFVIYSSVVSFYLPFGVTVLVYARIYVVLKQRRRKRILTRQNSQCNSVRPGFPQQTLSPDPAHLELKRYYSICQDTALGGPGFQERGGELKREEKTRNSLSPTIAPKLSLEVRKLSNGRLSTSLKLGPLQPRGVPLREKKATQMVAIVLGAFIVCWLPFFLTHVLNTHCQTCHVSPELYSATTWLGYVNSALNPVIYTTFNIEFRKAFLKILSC
D2longR-mNeonGreen (hD2R-mNeonGreen), sequence (P14416 whole entry): as the sequence (P14416 whole entry) above

Row | Kd [1] [nM] | Ki [2] [nM] | Ki [3] [nM] | Ki [4] [nM] | Ki [5] [nM] | Kb [6] [nM] | Ki [7] [nM] | Kb [8] [nM] | pKi ([4]; displacement of […] [3H]N-methylspiperone, room temperature, […] min, N = […]) | SMILES
1 | 7.59 | 67.6 | 2.63 | 5.75 | 331 | 0.0295 | 16.6 | 1.66 |  | CN(C)c1ccc2c(-c3ccc(C(=O)NCCCC(=O)Nc4ccc(CCN5CN(c6ccccc6)C6(CCN(CCCC(=O)c7ccc(F)cc7)CC6)C5=O)cc4)cc3C(=O)[O-])c3ccc(=[N+](C)C)cc-3oc2c1 [compound 20, 2-(6-(Dimethylamino)-3-(dimethyliminio)-3H-xanthen-9-yl)-5-((4-((4-(2-(8-(4-(4-fluorophenyl)-4-oxobutyl)-4-oxo-1-phenyl-1,3,8-triazaspiro[4.5]decan-3-yl)ethyl)phenyl)amino)-4-oxobutyl)carbamoyl)benzoate dihydrotrifluoracetate]
2 |  | 331 | 5.13 | 5.62 | > 3160 |  | 29.5 |  |  | CN(C)c1ccc2c(-c3ccc(C(=O)NCCCOCCOCCOCCCNC(=O)CCC(=O)Nc4ccc(CCN5CN(c6ccccc6)C6(CCN(CCCC(=O)c7ccc(F)cc7)CC6)C5=O)cc4)cc3C(=O)[O-])c3ccc(=[N+](C)C)cc-3oc2c1 [compound 17, 2-(6-(Dimethylamino)-3-(dimethyliminio)-3H-xanthen-9-yl)-5-((18-((4-(2-(8-(4-(4-fluorophenyl)-4-oxobutyl)-4-oxo-1-phenyl-1,3,8-triazaspiro[4.5]decan-3-yl)ethyl)phenyl)amino)-15,18-dioxo-4,7,10-trioxa-14-azaoctadecyl)carbamoyl)benzoate dihydrotrifluoroacetate]
3 |  |  |  |  |  |  |  |  | 6.67 ± 0.07 | COCC[N+]1=C(C=CC=C2N(CCCCCC(=O)NCCCOCCOCCOCCCNC(=O)CCC(=O)Nc3ccc(CCN4CN(c5ccccc5)C5(CCN(CCCC(=O)c6ccc(F)cc6)CC5)C4=O)cc3)c3ccc(S(=O)(=O)[O-])cc3C2(C)CCCS(=O)(=O)O)C(C)(CCCS(=O)(=O)O)c2cc(S(=O)(=O)O)ccc21 (centres unmarked) [compound 16]
